According to PubChem BioAssay AID2719 (The Scripps Research Institute Molecular Screening Center, 2010):

Biological target: Mucolipin-3 (Homo sapiens) (UniProt Q8TDD5)
Test: calcium influx via TRP channels, profiling panel, selectivity assay for selective TRPML3 agonist project, cell-based, HEK293 transfected, Fura-2 ratio imaging (AID 2719)
Conditions: fura-2 calcium ratio, at 10 µM, active compounds read high; call rule not given here

Mucolipin-3 (Homo sapiens), sequence (Q8TDD5 whole entry, looked up): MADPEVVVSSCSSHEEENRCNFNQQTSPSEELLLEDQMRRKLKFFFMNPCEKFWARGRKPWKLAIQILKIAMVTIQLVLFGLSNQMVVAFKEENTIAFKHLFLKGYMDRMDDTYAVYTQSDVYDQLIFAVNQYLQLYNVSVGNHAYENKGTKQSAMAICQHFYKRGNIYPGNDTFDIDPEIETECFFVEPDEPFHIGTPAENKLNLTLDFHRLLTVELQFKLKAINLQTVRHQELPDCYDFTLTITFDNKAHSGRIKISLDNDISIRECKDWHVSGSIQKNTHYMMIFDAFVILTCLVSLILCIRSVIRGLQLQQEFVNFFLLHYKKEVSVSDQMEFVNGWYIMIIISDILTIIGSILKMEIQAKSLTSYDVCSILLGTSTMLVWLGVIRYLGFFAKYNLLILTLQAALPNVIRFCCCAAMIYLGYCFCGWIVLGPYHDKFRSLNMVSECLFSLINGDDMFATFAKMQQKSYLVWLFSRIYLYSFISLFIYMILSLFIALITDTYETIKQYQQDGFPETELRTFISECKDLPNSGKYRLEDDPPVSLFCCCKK

fura-2 ratio change (340/380), active:
CC1CCN(S(=O)(=O)c2ccc(C(C)C)cc2)CC1 0.52
CCOc1ccc(S(=O)(=O)N2CCCCCC2)c2ccccc12 1
Cc1ccc(S(=O)(=O)n2nccc2-c2c(-c3ccc(Cl)cc3)noc2C)cc1 0.72
